Data taken from patent publication US20260174878A1, “IRAK4 DEGRADATION AGENT AND USE THEREOF” (LEADINGTAC PHARMACEUTICAL (SHAOXING) CO., LTD., priority 2022, published 2026).

target: T1, IRAK4 protein in normal human PBMCs (Homo sapiens, UniProt Q9NWZ3); assay: Degradation of IRAK4 protein in normal human PBMCs (AlphaLISA); type: cell-based; details: 24 h incubation
T1 construct: host or cells: normal human PBMCs
T1 sequence (Q9NWZ3 1-460): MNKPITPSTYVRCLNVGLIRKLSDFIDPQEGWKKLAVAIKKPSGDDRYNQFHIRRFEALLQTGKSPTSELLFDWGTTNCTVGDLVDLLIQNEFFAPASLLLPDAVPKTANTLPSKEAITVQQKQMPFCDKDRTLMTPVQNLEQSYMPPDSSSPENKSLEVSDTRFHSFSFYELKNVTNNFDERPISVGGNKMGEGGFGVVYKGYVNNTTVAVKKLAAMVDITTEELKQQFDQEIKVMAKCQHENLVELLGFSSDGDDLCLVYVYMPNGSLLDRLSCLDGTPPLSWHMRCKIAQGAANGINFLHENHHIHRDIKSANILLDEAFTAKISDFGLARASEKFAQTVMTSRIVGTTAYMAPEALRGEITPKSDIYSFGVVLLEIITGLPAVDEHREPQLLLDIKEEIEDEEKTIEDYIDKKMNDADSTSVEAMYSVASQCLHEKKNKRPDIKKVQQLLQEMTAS
Experimental: The cryopreserved normal human PBMCs (Milestone, PB010C) were thawed and resuspended in RPMI 1640 medium (Gibco, A1049101) supplemented with 10% fetal bovine serum (Gibco, 10099141), 100 U/mL penicillin, and 100 µg/mL streptomycin (Gibco, 15140122). After 0.95 mL of cells were plated in each well of a 24-well cell culture plate, 50 µL of diluted compound solution was added to corresponding wells with cells, such that the final concentration of the compound fell within the range of 0.01-3000 nM. The final concentration of DMSO was 0.25%. After the compound-treated cell plate was incubated in an incubator at 37° C. with 5% CO2 for 24 h, the cells were collected into 1.5 mL centrifuge tubes and centrifuged at 1000 rpm at 4° C. for 5 min. The cell pellets were washed twice with 1×DPBS. The resuspended cells were lysed with 100 μL of lysis buffer, left to stand on ice for 30 min, and then centrifuged at 14000 g at 4° C. for 10 min. The samples of the cell lysate supernatant after centrifugation were cryopreserved at −80° C. before testing. The cell lysis buffer was a Western and IP cell lysis buffer (Beyotime, P0013) supplemented with 1 mM phenylmethylsulfonyl fluoride and a protease inhibitor cocktail (Beyotime, P1008).
The total protein concentrations of the cell lysate samples were determined using a BCA protein quantification kit (Tiangen, PA115-02).
The prepared PBMC lysate samples were assayed for IRAK4 concentrations using a human IRAK4 AlphaLISA assay kit (PerkinElmer, AL3117C) to determine the degradation effects of the compounds on IRAK4. The method is as follows:
5 μL of each of IRAK4 standard solutions with different concentrations and test samples of cell lysate supernatant were added to a white 384-well plate (PerkinElmer, 6007299), and then 10 μL of 5× anti-IRAK4 […] beads was added to each well (final concentration of 10 μg/mL). The plate was incubated at room temperature for 30 min. Then 10 μL of 5× biotin-labeled anti-IRAK4 antibody was added to each well (final concentration of 1 nM), and the plate was incubated at room temperature for another 60 min. Finally, 25 μL of 2× streptavidin-labeled donor beads was added to each well (final concentration of 40 μg/mL), and the plate was incubated at room temperature for another 30 min. After the incubation was completed, AlphaLISA signal values were measured on a microplate reader EnVision (PerkinElmer, 2105) in the AlphaScreen standard mode. A standard curve was plotted from the AlphaLISA signal values of the IRAK4 standard solutions with different concentrations, and the IRAK4 concentration of each cell lysate supernatant was determined according to the corresponding concentrations on the standard curve for the AlphaLISA signal values of the test samples and by performing corresponding correction on the total protein concentration of each sample obtained by BCA quantification. The degradation rates for the compounds at each concentration were calculated by comparing the IRAK4 concentration with that of the control group. Then non-linear curve fittings for logarithmic concentration-inhibition rate were performed using GraphPad Prism 8, and the DC50 and Dmax values of the compound were obtained.

Structure (SMILES)	DC50 [nM]	Dmax [%]
O=C1CCN(c2cc(C(=O)N3CCC4(CCN(C[C@H]5CC[C@H](n6cc(NC(=O)c7cnn8ccc(N9CCOCC9)nc78)c(C(F)F)n6)CC5)CC4)CC3)ccc2Cl)C(=O)N1 [Example 8, N-(1-((1R,4R)-4-((9-(4-chloro-3-(2,4-dioxotetrahydropyrimidin-1(2H)-yl)benzoyl)-3,9-diazaspiro [5.5]undecan-3-yl)methyl)cyclohexyl)-3-(difluoromethyl)-1H-pyrazol-4-yl)-5-morpholinopyrazolo[1,5-a]pyrimidine-3-carboxamide]	0.8	99.1
CN(CCC1CCN(C(=O)c2ccc(Cl)c(N3CCC(=O)NC3=O)c2)CC1)C[C@H]1CC[C@H](n2cc(NC(=O)c3cnn4ccc(N5CCOCC5)nc34)c(C(F)F)n2)CC1 [Example 9, N-(1-((1R,4R)-4-(((2-(1-(4-chloro-3-(2,4-dioxotetrahydropyrimidin-1(2H)-yl)benzoyl)piperidin-4-yl)ethyl)(methyl)amino)methyl)cyclohexyl)-3-(difluoromethyl)-1H-pyrazol-4-yl)-5-morpholinopyrazolo [1,5-a]pyrimidine-3-carboxamide]	0.39	98
Cc1ccc(C(=O)N2CCC3(CCC(CN4CCC(n5cc(NC(=O)c6cnn7ccc(N8CCS(=O)(=O)CC8)nc67)c(C(F)F)n5)CC4)CC3)CC2)cc1N1CCC(=O)NC1=O [Example 22, N-(3-(difluoromethyl)-1-(1-((3-(3-(2,4-dioxotetrahydropyrimidin-1(2H)-yl)-4-methylbenzoyl)-3-azaspiro[5.5]undecan-9-yl)methyl)piperidin-4-yl)-1H-pyrazol-4-yl)-5-(1,1-dioxothiomorpholinyl)pyrazolo[1,5-a]pyrimidine-3-carboxamide]	0.53	98.1
Cc1ccc(C(=O)N2CCC3(CCC(CN4CCC(n5cc(NC(=O)c6cnn7ccc(N8CCC[C@H](N)C8)nc67)c(C(F)F)n5)CC4)CC3)CC2)cc1N1CCC(=O)NC1=O [Example 23, (S)-5-(3-aminopiperidin-1-yl)-N-(3-(difluoromethyl)-1-(1-((3-(3-(2,4-dioxotetrahydropyrimidin-1(2H)-yl)-4-methylbenzoyl)-3-azaspiro[5.5]undecan-9-yl)methyl)piperidin-4-yl)-1H-pyrazol-4-yl)pyrazolo[1,5-a]pyrimidine-3-carboxamide]	2.17	99
Cc1ccc(C(=O)N2CCC3(CCC(CN4CCC(n5cc(NC(=O)c6cnn7ccc(N8CC9(COC9)C8)nc67)c(C(F)F)n5)CC4)CC3)CC2)cc1N1CCC(=O)NC1=O [Example 24, N-(3-(difluoromethyl)-1-(1-((3-(3-(2,4-dioxotetrahydropyrimidin-1(2H)-yl)-4-methylbenzoyl)-3-azaspiro[5.5]undecan-9-yl)methyl)piperidin-4-yl)-1H-pyrazol-4-yl)-5-(2-oxa-6-azaspiro[3.3]heptan-6-yl)pyrazolo[1,5-a]pyrimidine-3-carboxamide]	0.48	96.2
Cc1ccc(C(=O)N2CCC3(CCC(CN4CCC(n5cc(NC(=O)c6cnn7ccc(N8CCC[C@H](O)C8)nc67)c(C(F)F)n5)CC4)CC3)CC2)cc1N1CCC(=O)NC1=O [Example 25, (S)—N-(3-(difluoromethyl)-1-(1-((3-(3-(2,4-dioxotetrahydropyrimidin-1(2H)-yl)-4-methylbenzoyl)-3-azaspiro[5.5]undecan-9-yl)methyl)piperidin-4-yl)-1H-pyrazol-4-yl)-5-(3-hydroxypiperidin-1-yl)pyrazolo [1,5-a]pyrimidine-3-carboxamide]	0.32	97.5
O=C1CCN(c2cc(C(=O)N3CCC4(CCC(CN5CCC(n6cc(NC(=O)c7cnn8ccc(N9CCC[C@H](O)C9)nc78)c(C(F)F)n6)CC5)CC4)CC3)ccc2Cl)C(=O)N1 [Example 26, (S)—N-(1-(1-((3-(4-chloro-3-(2,4-dioxotetrahydropyrimidin-1(2H)-yl)benzoyl)-3-azaspiro[5.5]undecan-9-yl)methyl)piperidin-4-yl)-3-(difluoromethyl)-1H-pyrazol-4-yl)-5-(3-hydroxypiperidin-1-yl)pyrazolo[1,5-a]pyrimidine-3-carboxamide]	0.35	97.8
COc1ccc(C(=O)N2CCC3(CCN(CCCN4CCC(n5cc(NC(=O)c6cnn7ccc(N8CCOCC8)nc67)c(C(F)F)n5)CC4)CC3)CC2)cc1N1CCC(=O)NC1=O [Example 28, N-(3-(difluoromethyl)-1-(1-(3-(9-(3-(2,4-dioxotetrahydropyrimidin-1(2H)-yl)-4-methoxybenzoyl)-3,9-diazaspiro[5.5]undecan-3-yl)propyl)piperidin-4-yl)-1H-pyrazol-4-yl)-5-morpholinopyrazolo[1,5-a]pyrimidine-3-carboxamide]	4.73	107
O=C1CCN(c2cc(C(=O)N3CCC4(CCC(CN5CCC(n6cc(NC(=O)c7cnn8ccc(N9CCS(=O)(=O)CC9)nc78)c(C(F)F)n6)CC5)CC4)CC3)ccc2Cl)C(=O)N1 [Example 29, N-(1-(1-((3-(4-chloro-3-(2,4-dioxotetrahydropyrimidin-1(2H)-yl)benzoyl)-3-azaspiro[5.5]undecan-9-yl)methyl)piperidin-4-yl)-3-(difluoromethyl)-1H-pyrazol-4-yl)-5-(1,1-dioxothiomorpholinyl) pyrazolo[1,5-a]pyrimidine-3-carboxamide]	0.53	98.2
N[C@H]1CCCN(c2ccn3ncc(C(=O)Nc4cn(C5CCN(CC6CCC7(CC6)CCN(C(=O)c6ccc(Cl)c(N8CCC(=O)NC8=O)c6)CC7)CC5)nc4C(F)F)c3n2)C1 [Example 30, (S)-5-(3-aminopiperidin-1-yl)-N-(1-(1-((3-(4-chloro-3-(2,4-dioxotetrahydropyrimidin-1(2H)-yl)benzoyl)-3-azaspiro[5.5]undecan-9-yl)methyl)piperidin-4-yl)-3-(difluoromethyl)-1H-pyrazol-4-yl)pyrazolo [1,5-a]pyrimidine-3-carboxamide]	1	100
O=C1CCN(c2cc(C(=O)N3CCC(OCCCN4CCC(n5cc(NC(=O)c6cnn7ccc(N8C[C@H]9C[C@@H]8CO9)nc67)c(C(F)F)n5)CC4)CC3)ccc2Cl)C(=O)N1 [Example 31, 5-((1R,4R)-2-oxa-5-azabicyclo[2.2.1]heptan-5-yl)-N-(1-(1-(3-((1-(4-chloro-3-(2,4-dioxotetrahydropyrimidin-1(2H)-yl)benzoyl)piperidin-4-yl)oxy)propyl)piperidin-4-yl)-3-(difluoromethyl)-1H-pyrazol-4-yl)pyrazolo[1,5-a]pyrimidine-3-carboxamide]	0.84	99.2

target: T2, IRAK4 kinase (Homo sapiens, UniProt Q9NWZ3); assay: IRAK4 kinase activity test (KinEASE-STK S1 HTRF kit); type: biochemical; details: IRAK4 kinase 2.5 nM, 7 μM adenosine triphosphate, 37° C. 120 min
T2 construct: purchased Carna
T2 sequence (Q9NWZ3 1-460): T1 sequence (Q9NWZ3 1-460)
Experimental: Then 2.5 nM IRAK4 kinase (Carna), 1 μM biotinylated polypeptide substrate (Cisbio), and 7 μM adenosine triphosphate (Sigma-Aldrich) were sequentially added, and the mixtures were incubated at 37° C. for 120 min. Subsequently, an anti-phosphoserine/threonine antibody (Cisbio) conjugated with a europium element compound and streptavidin conjugated with a modified XL665 (Cisbio) were added to the reaction system to stop the reaction. After 1 h of incubation at room temperature, the fluorescence intensity of each well was measured at the excitation wavelength of 337 nm and the emission wavelengths of 620 nm and 665 nm with a microplate reader EnVision (PerkinElmer) in the HTRF mode, and Ratio values were calculated using the formula: Ratio=(665 nm/620 nm)×10^4. The inhibition rates of the compounds at each concentration were calculated by comparison with the fluorescence intensity ratio of the control group. Then non-linear curve fittings for logarithmic concentration-inhibition rate were performed using GraphPad Prism 7, and the IC50 values of the compounds were obtained.

Structure (SMILES)	IC50 [nM]
O=C1CCN(c2cc(C(=O)N3CCC4(CCN(C[C@H]5CC[C@H](n6cc(NC(=O)c7cnn8ccc(N9CCOCC9)nc78)c(C(F)F)n6)CC5)CC4)CC3)ccc2Cl)C(=O)N1 [Example 8, N-(1-((1R,4R)-4-((9-(4-chloro-3-(2,4-dioxotetrahydropyrimidin-1(2H)-yl)benzoyl)-3,9-diazaspiro [5.5]undecan-3-yl)methyl)cyclohexyl)-3-(difluoromethyl)-1H-pyrazol-4-yl)-5-morpholinopyrazolo[1,5-a]pyrimidine-3-carboxamide]	17
CN(CCC1CCN(C(=O)c2ccc(Cl)c(N3CCC(=O)NC3=O)c2)CC1)C[C@H]1CC[C@H](n2cc(NC(=O)c3cnn4ccc(N5CCOCC5)nc34)c(C(F)F)n2)CC1 [Example 9, N-(1-((1R,4R)-4-(((2-(1-(4-chloro-3-(2,4-dioxotetrahydropyrimidin-1(2H)-yl)benzoyl)piperidin-4-yl)ethyl)(methyl)amino)methyl)cyclohexyl)-3-(difluoromethyl)-1H-pyrazol-4-yl)-5-morpholinopyrazolo [1,5-a]pyrimidine-3-carboxamide]	4.64
